Entries after “also recorded” stand apart in the source; their conditions may differ. Structures can show the parent of a compound that is named as a salt. Where two headings read alike, the source gives them in different places.
Key:
[1] = target: MMP-2 (Homo sapiens (Human), UniProt P08253); experiment: Enzyme inhibition studies, MMP-2; assay type: biochemical; conditions: slow-binding, Ki calculated from koff/kon
[2] = target: MMP-14 (Homo sapiens (Human), UniProt P50281); experiment: Enzyme inhibition studies, MMP-14 catalytic domain; assay type: biochemical
[3] = target: MMP-1 (Homo sapiens (Human), UniProt P03956); experiment: Enzyme inhibition studies, MMP-1 catalytic domain; assay type: biochemical; conditions: at 100 μM; listed as ND-336, HCl salt
[4] = target: MMP-3 (Homo sapiens (Human), UniProt P08254); experiment: Enzyme inhibition studies, MMP-3 catalytic domain; assay type: biochemical; conditions: at 100 μM; listed as ND-336, HCl salt
[5] = target: MMP-7 (Homo sapiens (Human), UniProt P09237); experiment: Enzyme inhibition studies, MMP-7; assay type: biochemical; conditions: at 100 μM; listed as ND-336, HCl salt
[6] = Stability in buffers of the kinetic assays; assay type: physicochemical; conditions: in words
From the text: Human recombinant active MMP-2 and MMP-7, and the catalytic domains of MMP-3 and MMP-14/MT1-MMP were purchased from EMD Chemicals, Inc. (San Diego, Calif., USA); human recombinant catalytic domains of MMP-1, MMP-8, and MMP-9 were purchased from Enzo Life Sciences, Inc. (Farmingdale, N.Y., USA); human recombinant active ADAM9 and ADAM10 were purchased from R&D Systems (Minneapolis, Minn., USA). Fluorogenic substrates MOCAc-Pro-Leu-Gly-Leu-A2pr(Dnp)-Ala-Arg-NH2 (for MMP-2, MMP-7, MMP-9 and MMP-14) and MOCAc-Arg-Pro-Lys-Pro-Val-Glu-Nva-Trp-Arg-Lys(Dnp)-NH2 (for MMP-3) were purchased from Peptides International (Louisville, Ky., USA); Mca-KPLGL-Dpa-AR-NH2 (for MMP-1, MMP-8 and ADAM10) and Mca-PLAQAV-Dpa-RSSSR-NH2 (for ADAM9) were purchased from R&D Systems (Minneapolis, Minn., USA). […] Inhibitor stock solutions (10 mM) were prepared fresh in DMSO before enzyme inhibition assays. We followed the same methodology for enzyme inhibition studies as reported by Page-McCaw et al. (Nat. Rev. Mol. Cell Biol. 2007, 8, 221-233). Enzyme inhibition studies were carried out using a Cary Eclipse fluorescence spectrophotometer (Varian, Walnut Creek, Calif., USA). Compounds 4, 5, 6 and 7 were stable in the buffers that were used in the kinetic assays.

[7] = target: MMP-9 (Homo sapiens (Human), UniProt P14780); experiment: Gel experiment, cleavage of tau by MMP-9; assay type: biochemical; conditions: in words
[8] = Pharmacokinetics and brain distribution after single iv dose
Description: Mice (male CD-1, 6-7 weeks old, ˜30 g body weight, specific pathogen free) were purchased from Charles River Laboratories, Inc. (Wilmington, Mass., USA).
Samples were analyzed by ultraperformance liquid chromatography (UPLC)/(+)electrospray ionization (ESI)-multiple-reaction monitoring (MRM) with a reversed phase C18 column (Acclaim® RSLC 120 C18, 2.2 μm, 120 Å, 2.1×100 mm, Dionex, Sunnyvale, Calif., USA).
Quantification of the compounds in plasma and brain was obtained using peak-area ratios of the compounds to the internal standard, and the linear-regression parameters obtained from the calibration curves.

[9] = Water solubility (filtrate of saturated aqueous solution, UPLC-MRM)
[10] = male, CD-1, mouse, in vivo, 5 mg/kg
[11] = male, CD-1, mouse, in vivo, iv, 5 mg/kg
[12] = plasma, 5 mg/kg single iv, mice

MMP-2, sequence (P08253 110-660): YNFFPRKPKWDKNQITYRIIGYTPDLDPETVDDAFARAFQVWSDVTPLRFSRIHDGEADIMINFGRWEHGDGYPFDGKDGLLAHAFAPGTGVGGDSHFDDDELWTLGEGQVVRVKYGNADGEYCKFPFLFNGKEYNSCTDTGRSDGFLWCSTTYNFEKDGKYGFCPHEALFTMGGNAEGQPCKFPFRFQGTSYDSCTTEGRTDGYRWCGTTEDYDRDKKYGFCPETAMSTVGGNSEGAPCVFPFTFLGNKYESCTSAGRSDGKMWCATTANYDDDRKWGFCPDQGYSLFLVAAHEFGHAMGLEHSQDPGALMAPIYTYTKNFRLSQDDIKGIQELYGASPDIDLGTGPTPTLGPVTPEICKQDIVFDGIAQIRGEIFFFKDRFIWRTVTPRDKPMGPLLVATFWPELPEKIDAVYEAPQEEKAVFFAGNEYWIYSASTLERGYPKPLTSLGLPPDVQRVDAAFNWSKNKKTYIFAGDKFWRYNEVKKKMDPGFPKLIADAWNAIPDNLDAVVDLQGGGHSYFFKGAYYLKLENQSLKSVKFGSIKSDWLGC
MMP-3, sequence (P08254 100-272): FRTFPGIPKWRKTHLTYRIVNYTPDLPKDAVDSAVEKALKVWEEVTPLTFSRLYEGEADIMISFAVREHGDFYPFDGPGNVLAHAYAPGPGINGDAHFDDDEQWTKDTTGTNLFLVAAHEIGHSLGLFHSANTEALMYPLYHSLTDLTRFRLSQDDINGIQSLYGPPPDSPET
MMP-1, sequence (P03956 98-276): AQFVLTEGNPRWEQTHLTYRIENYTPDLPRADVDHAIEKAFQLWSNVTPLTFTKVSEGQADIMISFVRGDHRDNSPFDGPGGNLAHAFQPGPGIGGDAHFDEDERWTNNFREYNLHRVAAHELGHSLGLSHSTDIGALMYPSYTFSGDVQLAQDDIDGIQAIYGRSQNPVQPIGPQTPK
MMP-7, sequence (P09237 95-267): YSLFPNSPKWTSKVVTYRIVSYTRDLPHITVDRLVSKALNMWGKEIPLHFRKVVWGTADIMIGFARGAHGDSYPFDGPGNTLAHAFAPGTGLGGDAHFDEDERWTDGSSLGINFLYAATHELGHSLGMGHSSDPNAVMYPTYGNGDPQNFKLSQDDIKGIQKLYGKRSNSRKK
MMP-9, sequence (P14780 94-707, species assumed): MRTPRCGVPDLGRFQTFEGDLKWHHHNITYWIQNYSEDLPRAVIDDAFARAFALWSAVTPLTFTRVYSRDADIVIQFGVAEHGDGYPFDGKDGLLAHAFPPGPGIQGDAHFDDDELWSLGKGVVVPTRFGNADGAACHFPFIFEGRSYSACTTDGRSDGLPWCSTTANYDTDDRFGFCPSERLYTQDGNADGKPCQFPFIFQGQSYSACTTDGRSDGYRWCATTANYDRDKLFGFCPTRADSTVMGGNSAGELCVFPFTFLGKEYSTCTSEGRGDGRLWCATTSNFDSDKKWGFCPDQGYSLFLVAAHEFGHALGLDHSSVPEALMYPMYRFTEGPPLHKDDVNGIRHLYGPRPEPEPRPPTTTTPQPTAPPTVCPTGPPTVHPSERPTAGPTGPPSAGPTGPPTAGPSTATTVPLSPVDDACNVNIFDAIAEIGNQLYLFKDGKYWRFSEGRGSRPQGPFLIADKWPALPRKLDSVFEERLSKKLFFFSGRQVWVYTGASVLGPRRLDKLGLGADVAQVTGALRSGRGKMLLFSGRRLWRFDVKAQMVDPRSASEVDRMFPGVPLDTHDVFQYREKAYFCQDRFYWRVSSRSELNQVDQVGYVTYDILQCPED

## NCc1ccc(Oc2ccc(S(=O)(=O)CC3CS3)cc2)cc1 (centres unmarked) [Compound 5, (4-(4-((Thiiran-2-ylmethyl)sulfonyl)phenoxy)phenyl)methanamine HCl salt]
[1]; Ki
  Ki: 85 ± 1 nM
[1]
  Ki: 85 nM
[2]
  Ki: 120 ± 10 nM
[2]; catalytic domain, slow-binding, Ki from koff/kon
  Ki: 120 nM
[3]
  Inhibition: Ki (MMP-1) 4% inhibition at 100 μM
[4]
  Inhibition: Ki (MMP-3) 23% inhibition at 100 μM
[5]
  Inhibition: Ki (MMP-7) 1% inhibition at 100 μM
[6]
  stability in the buffers used in the kinetic assays: stable
[7]
  cleavage of tau in the presence of MMP-9: prevents cleavage of tau
[8]; 5 mg/kg single iv, mice
  time brain levels above Ki for MMP-2: at least 30 min
  time brain levels above Ki for MMP-9: at least 30 min
  time plasma levels above Ki for MMP-2: at least 30 min
  time plasma levels above Ki for MMP-9: at least 30 min
[8]; 2 min after 5 mg/kg single iv, mice
  Brain concentration: 5.55 ± 2.38 pmol/mg tissue
[8]; 5 min after 5 mg/kg single iv, mice
  Brain concentration: 2.97 ± 2.41 pmol/mg tissue
[8]; 10 min after 5 mg/kg single iv, mice
  Brain concentration: 1.20 ± 0.50 pmol/mg tissue
[8]; 30 min after 5 mg/kg single iv, mice
  Brain concentration: 0.213 ± 0.143 pmol/mg tissue
[8]; 60 min after 5 mg/kg single iv, mice
  Brain concentration: 0.0368 ± 0.0232 pmol/mg tissue
[8]; 90 min after 5 mg/kg single iv, mice
  Brain concentration: 0.0213 ± 0.0106 pmol/mg tissue
[8]; 120 min after 5 mg/kg single iv, mice
  Brain concentration: 0.0158 ± 0.0125 pmol/mg tissue
[8]; 240 min after 5 mg/kg single iv, mice
  Brain concentration: 0.00531 ± 0.00402 pmol/mg tissue
[8]; brain, 5 mg/kg single iv, mice
  AUC0-last: 57.7 pmol·min/mg
  AUC0-∞: 58.3 pmol·min/mg
  t1/2α: 3.32 min
  t1/2β: 75.3 min
[8]; in words, listed as ND-336, HCl salt
  crossing of the blood-brain barrier: cross the blood-brain barrier; also recorded: crosses the BBB
[8]; [10]
  concentration at 2 min: 4350 ± 1100 nM
  concentration at 5 min: 3150 ± 1490 nM
  concentration at 10 min: 2390 ± 820 nM
  concentration at 30 min: 377 ± 116 nM
  concentration at 60 min: 57.4 ± 31.6 nM
  concentration at 90 min: 33.2 ± 6.5 nM
  concentration at 120 min: 21.8 ± 5.4 nM
  concentration at 240 min: 6.94 ± 6.06 nM
[8]; [11]
  AUC(0-inf): 1.23 µM·h
  AUC(0-t): 1.22 µM·h
  Kp: 0.793
  Vd: 2.76 L/kg
  clearance: 202 mL/min/kg
[8]; [12]
  AUC0-last: 72.9 µM·min
  AUC0-∞: 73.6 µM·min
  CL: 202 mL/min/kg
  t1/2α: 6.47 min
  t1/2β: 68.0 min
[9]; HCl salt
  Aq. solubility: 4900 µg/mL
[9]; listed as ND-336, HCl salt
  Aq. solubility: Water Solubility 4.9 mg/mL
[9]; thermodynamic from solid
  solubility: 4900 µg/mL
